{"source": "ChEMBL document CHEMBL1201862", "about": "“PubChem BioAssay data set” (2004)", "key": {"HEK293 [1]": {"tested_on": "HEK293", "assay": "NOD1 signaling inhibitors, primary screen, cell-based, luminescence, uHTS (AID 1578)", "type": "functional", "settings": "Homo sapiens"}, "HEK293 [2]": {"tested_on": "HEK293", "assay": "cells", "type": "functional, cell-based", "settings": "Homo sapiens"}, "HEK293 [3]": {"tested_on": "HEK293", "assay": "cells", "type": "functional, cell-based", "settings": "Homo sapiens", "remark": "listed apart in the source"}, "HEK293 [4]": {"tested_on": "HEK293", "assay": "NOD2 signaling inhibitors in MDP-stimulated cells, cell-based, uHTS, luminescence (AID 2001)", "type": "functional", "settings": "Homo sapiens"}, "[5]": {"molecular_target": "DNA damage-inducible transcript 3 protein (Mus musculus, UniProt P35639)", "type": "functional, Cricetulus griseus"}, "X-box-binding protein 1": {"molecular_target": "T1, X-box-binding protein 1 (Homo sapiens, UniProt P17861)", "T1 sequence (P17861 whole entry)": "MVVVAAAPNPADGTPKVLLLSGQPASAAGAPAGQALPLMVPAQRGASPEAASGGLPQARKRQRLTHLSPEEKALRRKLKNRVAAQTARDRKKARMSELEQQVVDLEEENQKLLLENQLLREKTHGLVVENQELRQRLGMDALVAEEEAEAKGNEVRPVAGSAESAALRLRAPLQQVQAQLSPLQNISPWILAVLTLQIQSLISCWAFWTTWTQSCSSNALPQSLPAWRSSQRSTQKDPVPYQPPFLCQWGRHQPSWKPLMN", "type": "functional, Cricetulus griseus"}, "[6]": {"assay": "HEp-2 cell cytotoxicity, dose response, cytotoxicity control for RSV inhibitor project, HTS (AID 2410)", "type": "functional", "settings": "human respiratory syncytial virus"}, "[7]": {"molecular_target": "Peroxisome proliferator-activated receptor gamma/Nuclear receptor coactivator 1 (Homo sapiens, UniProt P37231)", "assay": "(§1) TR-FRET dose response biochemical High Throughput Screening assay for agonists of the steroid receptor coactivator 1 (SRC-1) recruitment by the peroxisome proliferator-activated receptor gamma (PPAR gamma): non-selective agonists. [Related pubchem assays (depositor defined):AID1300, AID1808, AID504735, AID631]", "type": "protein assay"}, "[8]": {"tested_on": "Streptococcus sp. 'group A'", "assay": "growth inhibition of control SK(-) GAS strain, dose response, counter-screen for streptokinase expression inhibitor project, luminescence, kanamycin, BacTiterGlo, confirmation (AID 1900)", "type": "functional, organism-based"}, "[9]": {"molecular_target": "Peroxisome proliferator-activated receptor gamma/Nuclear receptor coactivator 3 (Homo sapiens, UniProt P37231)", "assay": "as §1, with “3 (SRC-3)” for “1 (SRC-1)”, “assays: 1301 (Confirmation screen.), 1048 (Primary screen.)]” for “assays (depositor defined):AID1300, AID1808, AID504735, AID631]”", "type": "functional"}, "Streptococcus [10]": {"tested_on": "Streptococcus", "assay": "Luminescence Microorganism-Based Dose Response Follow up to Identify Compounds Cytotoxic to Streptococcus. [Related pubchem assays: 1677 (Project Summary), 1915, 1914, 1902 (Retest at Dose), 1900 (Counter Screen), 1662 (Primary HTS)]", "type": "functional, organism-based"}, "Streptokinase A": {"molecular_target": "T2, Streptokinase A (Streptococcus pyogenes serotype M1, UniProt P10520)", "T2 sequence (P10520 whole entry)": "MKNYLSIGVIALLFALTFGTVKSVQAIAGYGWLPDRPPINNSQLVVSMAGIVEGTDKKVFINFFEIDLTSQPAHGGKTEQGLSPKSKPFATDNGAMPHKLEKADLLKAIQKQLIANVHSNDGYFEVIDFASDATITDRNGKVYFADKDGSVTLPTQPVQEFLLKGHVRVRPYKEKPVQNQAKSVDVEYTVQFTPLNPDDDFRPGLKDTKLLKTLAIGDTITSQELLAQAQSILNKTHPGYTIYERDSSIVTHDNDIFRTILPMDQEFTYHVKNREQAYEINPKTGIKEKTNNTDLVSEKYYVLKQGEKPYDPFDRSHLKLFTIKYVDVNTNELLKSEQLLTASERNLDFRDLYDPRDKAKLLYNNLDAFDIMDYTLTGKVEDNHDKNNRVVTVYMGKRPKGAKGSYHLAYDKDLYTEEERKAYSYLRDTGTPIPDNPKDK", "assay": "S. pyogenes streptokinase expression inhibitors, potency, dose response, plasminogen activation absorbance, OD405 (AID 1914)", "type": "functional, Streptococcus pyogenes M1 GAS"}, "[11]": {"molecular_target": "Protein-tyrosine kinase 2-beta (Homo sapiens, UniProt Q14289)"}, "[12]": {"molecular_target": "Peroxisome proliferator-activated receptor gamma/Nuclear receptor coactivator 2 (Homo sapiens, UniProt P37231)", "assay": "TR-FRET dose response biochemical High Throughput Screening assay for agonists of the steroid receptor coactivator 2 (SRC-2) recruitment by the peroxisome proliferator-activated receptor gamma (PPAR gamma): non-selective agonists. [Related pubchem assays: 1297, 1032 ]", "type": "functional"}, "Streptococcus [13]": {"tested_on": "Streptococcus", "assay": "Group A Streptococcus viability loss, dose response, counter-screen for streptokinase expression inhibitor project, luminescence, BacTiterGlo (AID 1915)", "type": "functional, organism-based"}, "Troponin, cardiac muscle": {"molecular_target": "Troponin, cardiac muscle (Homo sapiens, UniProt P19429+P45379+P63316)", "assay": "Fluorescence-based biochemical high throughput dose response assay for activators of the calcium sensitivity of cardiac Regulated Thin Filaments (RTF). [Related pubchem assays (depositor defined):AID493008, AID493018, AID504382, AID504383]", "type": "protein-complex assay"}, "Ion channel NompC": {"molecular_target": "Ion channel NompC (Danio rerio, UniProt Q7T1G6)", "assay": "Dose response cell-based high-throughput screening assay for agonists of the transient receptor potential channel N1 (TRPN1). [Related pubchem assays (depositor defined):AID1424, AID1448]", "type": "functional"}, "Mucolipin-3": {"molecular_target": "T3, Mucolipin-3 (Homo sapiens, UniProt Q8TDD5)", "T3 sequence (Q8TDD5 whole entry)": "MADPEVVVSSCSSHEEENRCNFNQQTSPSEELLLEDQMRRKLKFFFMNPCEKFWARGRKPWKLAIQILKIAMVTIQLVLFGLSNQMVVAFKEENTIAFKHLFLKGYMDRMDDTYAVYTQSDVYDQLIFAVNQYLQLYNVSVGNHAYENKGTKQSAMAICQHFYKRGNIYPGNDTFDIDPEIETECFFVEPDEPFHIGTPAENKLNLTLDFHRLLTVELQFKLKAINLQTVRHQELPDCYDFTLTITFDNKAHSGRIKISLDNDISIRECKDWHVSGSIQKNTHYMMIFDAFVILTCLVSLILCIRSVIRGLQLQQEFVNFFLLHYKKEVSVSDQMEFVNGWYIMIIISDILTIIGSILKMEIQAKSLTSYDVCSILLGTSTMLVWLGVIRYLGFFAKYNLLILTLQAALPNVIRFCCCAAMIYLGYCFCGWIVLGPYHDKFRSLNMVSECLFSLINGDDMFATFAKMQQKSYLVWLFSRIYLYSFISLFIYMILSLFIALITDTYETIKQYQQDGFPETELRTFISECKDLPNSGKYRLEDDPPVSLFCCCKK", "assay": "Fluorescence counterscreen assay for […] agonists: dose response cell-based high-throughput screening assay to identify agonists of the transient receptor potential channel ML3 (TRPML3). [Related pubchem assays: 1424, 1448 ]", "type": "functional"}, "[14]": {"assay": "microbe, parasite or virus in culture", "type": "functional", "settings": "Mycobacterium tuberculosis"}, "[15]": {"molecular_target": "T4, Replicative DNA helicase DnaB (Mycobacterium tuberculosis, UniProt P9WMR3)", "T4 sequence (P9WMR3 whole entry)": "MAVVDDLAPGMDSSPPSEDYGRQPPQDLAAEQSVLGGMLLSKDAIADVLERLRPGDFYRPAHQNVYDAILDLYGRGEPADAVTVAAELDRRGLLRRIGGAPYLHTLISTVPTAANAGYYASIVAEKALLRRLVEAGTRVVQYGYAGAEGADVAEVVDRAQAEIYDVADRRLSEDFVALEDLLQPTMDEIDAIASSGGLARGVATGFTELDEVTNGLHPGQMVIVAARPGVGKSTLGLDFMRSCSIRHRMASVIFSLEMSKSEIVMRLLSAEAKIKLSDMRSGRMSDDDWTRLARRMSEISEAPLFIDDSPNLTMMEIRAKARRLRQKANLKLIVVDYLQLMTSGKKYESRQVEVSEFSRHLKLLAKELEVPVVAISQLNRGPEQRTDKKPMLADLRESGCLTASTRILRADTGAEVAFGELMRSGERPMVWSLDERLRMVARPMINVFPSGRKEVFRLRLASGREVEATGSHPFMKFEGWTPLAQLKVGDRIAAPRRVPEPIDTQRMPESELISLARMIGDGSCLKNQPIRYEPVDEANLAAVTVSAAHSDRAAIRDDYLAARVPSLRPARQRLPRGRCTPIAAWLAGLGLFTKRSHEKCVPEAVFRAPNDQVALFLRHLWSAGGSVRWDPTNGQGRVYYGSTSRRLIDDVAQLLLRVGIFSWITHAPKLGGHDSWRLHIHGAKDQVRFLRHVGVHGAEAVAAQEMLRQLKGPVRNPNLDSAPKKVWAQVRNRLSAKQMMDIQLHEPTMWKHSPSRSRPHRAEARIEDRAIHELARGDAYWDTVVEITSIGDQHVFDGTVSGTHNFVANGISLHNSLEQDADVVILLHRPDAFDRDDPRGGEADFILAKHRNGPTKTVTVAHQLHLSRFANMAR", "assay": "DnaB intein splicing inhibitors, dose response, biochemical, cell-free fluorescence (AID 449749)", "type": "functional"}, "Protein RecA": {"molecular_target": "T5, Protein RecA (Mycobacterium tuberculosis, UniProt P9WHJ3)", "T5 sequence (P9WHJ3 whole entry)": "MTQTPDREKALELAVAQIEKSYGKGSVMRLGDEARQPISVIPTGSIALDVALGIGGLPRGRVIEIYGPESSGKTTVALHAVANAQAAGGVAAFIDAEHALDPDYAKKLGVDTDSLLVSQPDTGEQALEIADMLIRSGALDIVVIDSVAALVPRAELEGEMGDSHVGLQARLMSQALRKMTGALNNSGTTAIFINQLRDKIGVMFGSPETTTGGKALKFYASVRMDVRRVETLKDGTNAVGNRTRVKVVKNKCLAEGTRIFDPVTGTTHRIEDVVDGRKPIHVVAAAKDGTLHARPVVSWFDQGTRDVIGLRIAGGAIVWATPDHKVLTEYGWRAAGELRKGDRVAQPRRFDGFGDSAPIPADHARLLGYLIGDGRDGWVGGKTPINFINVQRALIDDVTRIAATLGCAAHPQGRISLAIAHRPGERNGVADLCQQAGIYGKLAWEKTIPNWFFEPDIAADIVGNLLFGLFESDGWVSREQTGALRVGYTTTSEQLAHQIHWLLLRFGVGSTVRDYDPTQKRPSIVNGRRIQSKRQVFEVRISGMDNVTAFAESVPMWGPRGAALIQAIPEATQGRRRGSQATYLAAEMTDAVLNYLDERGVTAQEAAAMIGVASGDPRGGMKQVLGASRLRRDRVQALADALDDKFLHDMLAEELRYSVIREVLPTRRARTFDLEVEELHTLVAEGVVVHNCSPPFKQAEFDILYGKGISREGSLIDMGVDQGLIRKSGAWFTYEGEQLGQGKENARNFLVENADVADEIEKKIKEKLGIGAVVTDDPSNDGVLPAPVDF", "assay": "Fluorescence Cell-Free Homogeneous Dose Retest to Identify Inhibitors of RecA-Intein Splicing Activity. [Related pubchem assays (depositor defined):AID2097, AID2223, AID489010, AID492950]", "type": "functional"}}, "note": "Activity calls are given as the source filed them.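 For Absolute IC50 (XBP1) in this document: confirmatory dose-response counter-screen serving a CHOP assay.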"}
{"smiles": "O=C1NC(=O)N(Cc2ccco2)C(=O)/C1=C/C=C/c1ccco1", "values": [{"measurement": "EC50", "setting": "HEK293 [1]", "result": "> 20 µM (inactive)"}, {"measurement": "IC50", "setting": "HEK293 [2]", "result": "16.2 µM (active)"}, {"measurement": "IC50", "setting": "HEK293 [3]", "result": "> 20 µM (inactive)"}, {"measurement": "IC50", "setting": "HEK293 [4]", "result": "> 20 µM (inactive)"}, {"measurement": "Absolute IC50 (CHOP)", "setting": "[5]", "result": 10, "unit": "µM"}, {"measurement": "Absolute IC50 (XBP1)", "setting": "X-box-binding protein 1", "result": 10, "unit": "µM"}]}
{"smiles": "COc1ccc(-c2nc(-c3cccs3)c(-c3cccs3)[nH]2)cc1OC", "values": [{"measurement": "CC50", "setting": "[6]", "result": "23.4 µM (active)"}, {"measurement": "EC50", "setting": "[7]", "result": "13.9 µM (inactive)"}, {"measurement": "EC50", "setting": "[8]", "result": "2.57 µM (active)"}, {"measurement": "EC50", "setting": "[9]", "result": "> 79.4 µM (not active)"}, {"measurement": "EC50", "setting": "Streptococcus [10]", "result": "5.41 µM (active)"}, {"measurement": "EC50", "setting": "Streptokinase A", "result": "1.41 µM (active)"}, {"measurement": "IC50", "setting": "[11]", "result": "> 69.5 µM (not active)"}, {"measurement": "EC50", "setting": "[12]", "result": "15.6 µM (not active)"}, {"measurement": "EC50", "setting": "Streptococcus [13]", "result": "> 150 µM (not active)"}]}
{"smiles": "COc1cc(CCCN2C(S)=NC[C@@H]2CC2CCCCC2)cc(OC)c1OC", "values": [{"measurement": "EC50", "setting": "Troponin, cardiac muscle", "result": "> 71.5 µM (inactive)"}]}
{"smiles": "Cc1cc(O)nc(SCC(=O)Nc2ccccc2C)n1", "values": [{"measurement": "EC50", "setting": "Ion channel NompC", "result": "> 29.9 µM (inactive)"}, {"measurement": "EC50", "setting": "Mucolipin-3", "result": "> 29.9 µM (not active)"}]}
{"smiles": "C/C(=C1/C(=O)N(c2ccc([N+](=O)[O-])cc2)N=C1c1ccccc1)N(C)C", "values": [{"measurement": "EC50", "setting": "Ion channel NompC", "result": "3.71 µM (active)"}, {"measurement": "CC50", "setting": "[14]", "result": "10.6 µM (active)"}, {"measurement": "EC50", "setting": "Mucolipin-3", "result": "5.21 µM (active)"}]}
{"smiles": "Cc1cccc(/C=N/NC(=O)C(C)Nc2cccc3ccccc23)n1", "note": "(centres undefined)", "values": [{"measurement": "EC50", "setting": "Troponin, cardiac muscle", "result": "10.5 µM (inactive)"}, {"measurement": "AC50", "setting": "[15]", "result": "3.78 µM (active)"}, {"measurement": "EC50", "setting": "Protein RecA", "result": "47.1 µM (active)"}]}
